{"source": "patent US8648117B2", "about": "“Methods and compositions for treating cancer metastasis” (Golden Biotechnology Corporation, priority 2012, dated 2014)", "key": {"[1]": {"test_system": "MDA-MB-231SA-GFP6 human breast cancer cells", "test": "Breast cancer bone metastasis model (intracardiac inoculation, 25-day study, preventive setting)", "type": "in vivo", "from_the_text": "The objective of this study was to test the efficacy of three different doses of the exemplary compound 1 (Antroquinonol) from Example 1 on breast cancer bone metastases in female athymic nude mice in a 25-day study in preventive setting. The following 5 experimental groups were included in the study:\nThe vehicle was corn oil. All groups included 15 mice that are 5 weeks of age at the beginning of the study. Based on the body weights the animals were randomized to five groups. On day 0, the animals were given intracardiac inoculation of human breast cancer cells. Body weights were determined twice a week. At sacrifice, the osteolytic lesions and whole body tumor burden were quantified by x-ray and fluorescence imaging, respectively. The test compound and vehicle were administered by oral gavage twice a day. Blood samples for analysing TRACP 5b were collected at days 0, 17 and 24. The animals were sacrificed at day 25, or earlier if they became moribund. Tissue samples were collected for histology and embedded in paraffin from left and right tibia and femur for possible future histomorphometric analyses. Gross necropsy was performed to all animals at the end of the study, and all macroscopic signs were recorded.\n(§1) Test compound 1 (99%, 1005 mg/ml) was obtained in liquid form. Three 50× stock solutions were prepared in corn oil (75 mg/ml, 150 mg/ml and 225 mg/ml) and stored them in dark at +4° C. The dosing solutions of 1.5, 3.0 and 4.5 mg/ml were prepared from the stock solutions by diluting the stock solutions in corn oil 1:50. The dosing solutions were prepared once a week and stored in dark at +4° C. The dosing volume was 10 ml/kg. The test compound was administered by oral gavage twice a day with dosing intervals of 10+14 hours. The dosings were performed at the same time every day.\n(§2) Zoledronic acid was used as a reference compound. 100 μl of Zometa® (Novartis Pharma GmbH, Nürnberg, Germany) 4 mg/5 ml infusion concentrate was diluted in 3.9 ml of sterile saline (0.9% NaCl) to obtain the administration concentration of 0.02 mg/ml. This solution was prepared once during the study and stored at +4° C. The dosing volume was 5 ml/kg, resulting in the dose of 0.1 mg/kg. The reference compound was administered SC twice in the study: at days 1 and 14.\nFemale athymic nude mice (Hsd: Athymic nude-nu) were obtained from Harlan Laboratories B.V. (Horst, The Netherlands). MDA-MB-231SA-GFP6 human breast cancer cells were received originally from Prof. Theresa Guise (Indiana University, Indianapolis, Ind., USA) and transfected with pTurboGFP-N vector (Evrogen JSC, Moscow, Russia).\nThis experiment utilized an animal model that closely resembles the characteristics of breast cancer metastatic disease or condition in humans. This model can be effectively used for testing the effects of cancer drug candidates on the metastasis of breast cancer cells to bone. In this model, human breast cancer cells are inoculated into the left cardiac ventricle of 5 weeks old female athymic nude mice. This mouse strain is immunodeficient, allowing rapid spreading of the human cancer cells. Within two weeks after the inoculation, the animals develop osteolytic bone metastases that can be visualized by X-ray radiography. In addition, soft tissue metastases are observed in approximately 40% of the animals, especially in adrenal glands. At 3 weeks, the bone metastases are clearly visible in X-ray radiographs and the animals have developed cachexia and lost weight substantially. The animals are sacrificed typically at 3-4 weeks after inoculation, and their hindlegs are collected for further histomorphometric analysis.\nFemale Athymic nude mice (Hsd: Athymic nude-nu, obtained from Harlan, The Netherlands) were used for this study. The age of the animals was 5 weeks, and their body weights were approximately 16-22 g at the beginning of the study. The mice were specific pathogen free (SPF) and isolator-reared animals. […]"}, "[2]": {"test_system": "PC-3 human prostate cancer cells", "test": "Prostate cancer bone metastasis model (intratibial inoculation, 5-week study, preventive setting)", "type": "in vivo, male athymic nude mice", "design": "Fractures / Osteoblastic lesions: unit not given here", "conditions": "for Significance (Fractures) / Significance (Osteoblastic lesions): vs control; for Fractures / Osteoblastic lesions: x-ray, qualitative (yes or no)", "from_the_text": "The objective of this study was to test the efficacy of three different doses of the test compound 1 on prostate cancer bone metastases in male athymic nude mice in a 5-week study in preventive setting. The following 5 experimental groups were included in the study:\nThe vehicle was corn oil. All groups included 15 mice that were 7 weeks of age at the beginning of the study. Based on the body weights the animals were randomized to five groups. On day 0, the animals were given an intratibial inoculation of human prostate cancer cells. Body weights were determined twice a week. The development of osteoblastic and osteolytic lesions were followed by x-ray. The test compound and vehicle were administered by oral gavage twice a day. The animals were sacrificed at day 35. Tissue samples were collected for histology and embedded in paraffin from left and right tibia and femur for possible future histomorphometric analyses. Gross necropsy was performed to all animals at the end of the study, and all macroscopic signs were recorded.\nas §1, with “compound 1 (99.85%, specific density: 1.005) was obtained” for “compound 1 (99%, 1005 mg/ml) was obtained”, “dosings were started at day 1 and performed at” for “dosings were performed at”\nas §2, with “[…]” for “100 μl”\nMale athymic nude mice (Hsd: Athymic nude-nu, obtained from Harlan, The Netherlands) and PC-3 human prostate cancer cells (ATCC) were used for this study.\nIn this model, human prostate cancer cells are inoculated into the left proximal tibia of 5-7 week old male athymic nude mice. This mouse strain is immunodeficient, allowing rapid spreading of the human cancer cells. The bone lesions are mixed, being mainly osteolytic but also containing an osteoblastic component. Within four weeks after the inoculation part of the animals have already developed some bone lesions, that can be visualized by X-ray radiography. At 7 weeks, the bone metastases are clearly visible. The animals are sacrificed at 7-8 weeks after inoculation, and their bones are collected for further histomorphometric analysis.\nMale athymic nude mice (Hsd: Athymic nude-nu, obtained from Harlan, The Netherlands) were used for this study. The age of the animals was 7 weeks, and their body weights were approximately 18-25 g at the beginning of the study. The mice were specific pathogen free (SPF) and isolator-reared animals. Correct age and good clinical health were qualifications for the study. The minimum quarantine and acclimatization period for the mice was 7 days. Allocation to groups was performed by randomization procedure based on body weight. The animals were marked with tail and ear marks. The mice were housed in Scantainer®, 5 mice per cage. In case of fighting, some of the animals had to be isolated. For intratibial inoculations the mice were anesthetized with i.p. injections of Xylazin (5-6 mg/kg) and Ketamine (92-109 mg/kg). For x-ray imaging the mice were anesthetized with inhalation of isoflurane. […]"}, "[3]": {"conditions": "Day 28, 0.1 mg/kg sc days 1 and 14"}, "[4]": {"conditions": "Sacrifice, 0.1 mg/kg sc days 1 and 14"}}, "data": [{"smiles": "COC1=C(OC)C(O)C(C/C=C(\\C)CC/C=C(\\C)CCC=C(C)C)C(C)C1=O", "note": "(stereo not drawn) [Compound 1, 4-hydroxy-2,3-dimethoxy-6-methyl-5-(3,7,11-trimethyldodeca-2,6,10-trienyl)cyclohex-2-enone]", "values": [{"measurement": "Cachectic %", "setting": "[1]; 30 mg/kg/d po", "result": 21.4, "unit": "%"}, {"measurement": "Paraplegic %", "setting": "[1]; 30 mg/kg/d po", "result": 57.1, "unit": "%"}, {"measurement": "Cachectic %", "setting": "[1]; 60 mg/kg/d po", "result": 16.7, "unit": "%"}, {"measurement": "Paraplegic %", "setting": "[1]; 60 mg/kg/d po", "result": 8.3, "unit": "%"}, {"measurement": "Cachectic %", "setting": "[1]; 90 mg/kg/d po", "result": 20, "unit": "%"}, {"measurement": "Paraplegic %", "setting": "[1]; 90 mg/kg/d po", "result": 20.0, "unit": "%"}, {"measurement": "intraosseous tumor area", "setting": "[1]; higher doses (60 and 90 mg/kg/d)", "result": "no effect"}, {"measurement": "body weight at sacrifice", "setting": "[1]; mouse, in vivo, 90 mg/kg/day", "result": "increased"}, {"measurement": "maximum weight obtained during the study", "setting": "[1]; mouse, in vivo, 90 mg/kg/day", "result": "increased"}, {"measurement": "Significance (Fractures)", "setting": "[2]; Day 28, 30 mg/kg/d po", "result": "* (One asterisk (*) indicates a statistical significance with p-value<0.05)"}, {"measurement": "Significance (Fractures)", "setting": "[2]; Day 28, 60 mg/kg/d po", "result": "* (One asterisk (*) indicates a statistical significance with p-value<0.05)"}, {"measurement": "Fractures", "setting": "[2]; Day 28, 30 mg/kg/d po", "result": 0.0}, {"measurement": "Osteoblastic lesions", "setting": "[2]; Day 28, 30 mg/kg/d po", "result": 0.0}, {"measurement": "Fractures", "setting": "[2]; Day 28, 60 mg/kg/d po", "result": 0.0}, {"measurement": "Osteoblastic lesions", "setting": "[2]; Day 28, 60 mg/kg/d po", "result": 0.0}, {"measurement": "Fractures", "setting": "[2]; Day 28, 90 mg/kg/d po", "result": 36.4}, {"measurement": "Osteoblastic lesions", "setting": "[2]; Day 28, 90 mg/kg/d po", "result": 9.1}, {"measurement": "Significance (Fractures)", "setting": "[2]; Sacrifice, 30 mg/kg/d po", "result": "* (One asterisk (*) indicates a statistical significance with p-value<0.05)"}, {"measurement": "Significance (Fractures)", "setting": "[2]; Sacrifice, 60 mg/kg/d po", "result": "* (One asterisk (*) indicates a statistical significance with p-value<0.05)"}, {"measurement": "Significance (Osteoblastic lesions)", "setting": "[2]; Sacrifice, 60 mg/kg/d po", "result": "* (One asterisk (*) indicates a statistical significance with p-value<0.05)"}, {"measurement": "Fractures", "setting": "[2]; Sacrifice, 30 mg/kg/d po", "result": 21.4}, {"measurement": "Osteoblastic lesions", "setting": "[2]; Sacrifice, 30 mg/kg/d po", "result": 35.7}, {"measurement": "Fractures", "setting": "[2]; Sacrifice, 60 mg/kg/d po", "result": 21.4}, {"measurement": "Osteoblastic lesions", "setting": "[2]; Sacrifice, 60 mg/kg/d po", "result": 21.4}, {"measurement": "Fractures", "setting": "[2]; Sacrifice, 90 mg/kg/d po", "result": 36.4}, {"measurement": "Osteoblastic lesions", "setting": "[2]; Sacrifice, 90 mg/kg/d po", "result": 45.5}, {"measurement": "osteoclast number at tumor-bone interface", "setting": "[2]; all doses", "result": "no effect"}, {"measurement": "total tumor area", "setting": "[2]; dose 60 mg/kg/d", "result": "no effect"}, {"measurement": "maximum body weight obtained", "setting": "[2]; mouse, in vivo, 60 mg/kg/day", "result": "increased"}]}, {"smiles": "O=P(O)(O)C(O)(Cn1ccnc1)P(=O)(O)O", "note": "[Zoledronic acid, reference compound]", "values": [{"measurement": "Cachectic %", "setting": "[1]; 0.1 mg/kg sc days 1 and 14", "result": 11.1, "unit": "%"}, {"measurement": "Paraplegic %", "setting": "[1]; 0.1 mg/kg sc days 1 and 14", "result": 22.2, "unit": "%"}, {"measurement": "body weight", "setting": "[1]; 0.1 mg/kg sc days 1 and 14", "result": "no effect"}, {"measurement": "intraosseous tumor area", "setting": "[1]; 0.1 mg/kg sc days 1 and 14", "result": "no effect"}, {"measurement": "whole body tumor burden", "setting": "[1]; 0.1 mg/kg sc days 1 and 14", "result": "no effect"}, {"measurement": "body weight", "setting": "[2]; 0.1 mg/kg sc days 1 and 14", "result": "no effect"}, {"measurement": "Significance (Fractures)", "setting": "[2]; [3]", "result": "* (One asterisk (*) indicates a statistical significance with p-value<0.05)"}, {"measurement": "Fractures", "setting": "[2]; [3]", "result": 0.0}, {"measurement": "Osteoblastic lesions", "setting": "[2]; [3]", "result": 0.0}, {"measurement": "Significance (Fractures)", "setting": "[2]; [4]", "result": "*** (three asterisks (***) a statistical significance with p-value<0.001)"}, {"measurement": "Significance (Osteoblastic lesions)", "setting": "[2]; [4]", "result": "*** (three asterisks (***) a statistical significance with p-value<0.001)"}, {"measurement": "Fractures", "setting": "[2]; [4]", "result": 0.0}, {"measurement": "Osteoblastic lesions", "setting": "[2]; [4]", "result": 0.0}]}]}
